The results in this text go back to paper PMC12871559, “A general model for analysis of linear and hyperbolic enzyme inhibition mechanisms” (FEBS Open Bio, 2025).

Structures are written as SMILES.

Test in all cases: initial rates of NPβglc hydrolysis at […] nm, Lineweaver-Burk replots
What all share (format): biochemical

Experiment [1] deals with T1, Sfβgly (Spodoptera frugiperda, UniProt O61594, N249Q).
T1 construct: only point mutants assayed here

Experiment [2] has as its target T2, Sfβgly (Spodoptera frugiperda, UniProt O61594, S247Y).
T2 construct: only point mutants assayed here

Experiment [3] concerns the target T3, Sfβgly (Spodoptera frugiperda, UniProt O61594, F251A).
T3 construct: only point mutants assayed here

For experiment [4], the target named is T4, Sfβgly (Spodoptera frugiperda, UniProt O61594, N249A).
T4 construct: only point mutants assayed here
T4 sequence (O61594 17-509 limits assumed, stated change not applied): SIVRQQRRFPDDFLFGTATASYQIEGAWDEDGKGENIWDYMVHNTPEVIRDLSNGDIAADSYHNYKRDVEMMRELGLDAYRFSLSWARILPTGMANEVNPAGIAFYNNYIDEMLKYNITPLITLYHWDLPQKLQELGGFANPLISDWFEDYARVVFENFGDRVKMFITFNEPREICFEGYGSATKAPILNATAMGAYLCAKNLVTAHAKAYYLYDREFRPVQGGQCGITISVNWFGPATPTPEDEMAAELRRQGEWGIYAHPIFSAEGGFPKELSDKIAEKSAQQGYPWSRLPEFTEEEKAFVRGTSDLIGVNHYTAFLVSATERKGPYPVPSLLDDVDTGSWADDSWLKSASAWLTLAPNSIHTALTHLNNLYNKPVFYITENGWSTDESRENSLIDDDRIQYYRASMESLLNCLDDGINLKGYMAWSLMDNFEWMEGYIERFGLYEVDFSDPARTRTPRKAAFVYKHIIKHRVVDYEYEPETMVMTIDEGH

T1 sequence (O61594 17-509 limits assumed, stated change not applied): as above
T2 sequence (O61594 17-509 limits assumed, stated change not applied): as above
T3 sequence (O61594 17-509 limits assumed, stated change not applied): as above

A word on the Ki: it is a measure of affinity in units of concentration, obtained from inhibition or displacement. A lower Ki goes with tighter binding. Consider `NC(CO)(CO)CO` [Tris, 2‐amino‐2‐(hydroxymethyl)‐1,3‐propanediol], for which the Ki was determined as 32 mM on Sfβgly [1], 71 mM on Sfβgly [2], 10 mM at Sfβgly [3] and 0.6 mM on Sfβgly [4].
On to `c1c[nH]cn1` [imidazole], for which the Ki at Sfβgly [1] is 39 mM; on Sfβgly [2] it was 35 mM; at Sfβgly [3] it was 12 mM; at Sfβgly [4] it was 18 mM.
